Source: patent publication US10376520B2, “Methods for the treatment of cardiovascular disorders” (Galapagos NV, priority 2015, dated 2019)

System: RA patients
Assay: Atherogenic index, Study 1 (RA patients, add-on to MTX)
Assay type: in vivo, human
Details: for Atherogenic index Mean percentage CFB - 12 weeks results / Atherogenic index Median CFB - 12 weeks results / Atherogenic index Mean CFB: 2 × 100 mg (b.i.d. group); for atherogenic index variation, decrease compared to pre-treatment baseline: Study 1, after 12 weeks treatment
Procedure: As used herein, the term ‘atherogenic index’ refers to
Double-blind, placebo-controlled add on study in subjects with moderately to severely active RA who have an inadequate response to methotrexate (MTX) (oral or parenteral).
Compound 1 (dosed as a [Compound 1:HCl:3H2O]) is dosed for twelve weeks once daily (q.d.) (50 mg, 100 mg or 200 mg) or twice daily (b.i.d.) (25 mg, 50 mg or 100 mg); or placebo.
At Week 12, the subjects on placebo who have not achieved 20% improvement in swollen joint count (SJC66) and tender joint count (TJC68) are re-randomized automatically to receive Compound 1 (dosed as a [Compound 1:HCl:3H2O]) either at 100 mg q.d. or 50 mg b.i.d. doses in a blinded fashion; subjects on 50 mg q.d. who have not achieved 20% improvement in SJC66 and TJC68 will be assigned to 100 mg q.d. and subjects on 25 mg b.i.d. that have not achieved a 20% improvement in SJC66 and TJC68 will be assigned to 50 mg b.i.d. Subjects who switch treatment at week 12 are handled as if they discontinued at week 12 for the purpose of statistical analysis, whereas subjects in the other groups will maintain their randomized treatment until Week 24.
The atherogenic index has been identified to be a good predictor of cardiovascular disorders risks and is calculated as follows: […]

[1] = increased from 25 mg b.i.d. to 50 mg b.i.d at 12 weeks, week 1
[2] = increased from 25 mg b.i.d. to 50 mg b.i.d at 12 weeks, week 2
[3] = increased from 25 mg b.i.d. to 50 mg b.i.d at 12 weeks, week 4
[4] = increased from 25 mg b.i.d. to 50 mg b.i.d at 12 weeks, week 8
[5] = increased from 25 mg b.i.d. to 50 mg b.i.d at 12 weeks, week 12
[6] = increased from 25 mg b.i.d. to 50 mg b.i.d at 12 weeks, week 16
[7] = increased from 25 mg b.i.d. to 50 mg b.i.d at 12 weeks, week 20
[8] = increased from 25 mg b.i.d. to 50 mg b.i.d at 12 weeks, week 24
[9] = increased from 50 mg q.d. to 100 mg q.d. at 12 weeks, week 1
[10] = increased from 50 mg q.d. to 100 mg q.d. at 12 weeks, week 2
[11] = increased from 50 mg q.d. to 100 mg q.d. at 12 weeks, week 4
[12] = increased from 50 mg q.d. to 100 mg q.d. at 12 weeks, week 8
[13] = increased from 50 mg q.d. to 100 mg q.d. at 12 weeks, week 12
[14] = increased from 50 mg q.d. to 100 mg q.d. at 12 weeks, week 16
[15] = increased from 50 mg q.d. to 100 mg q.d. at 12 weeks, week 20
[16] = increased from 50 mg q.d. to 100 mg q.d. at 12 weeks, week 24
[17] = placebo switched to 50 mg b.i.d at week 12, week 16
[18] = placebo switched to 50 mg b.i.d at week 12, week 20
[19] = placebo switched to 50 mg b.i.d at week 12, week 24
[20] = placebo switched to 100 mg q.d. at week 12, week 16
[21] = placebo switched to 100 mg q.d. at week 12, week 20
[22] = placebo switched to 100 mg q.d. at week 12, week 24

## O=C(Nc1nc2cccc(-c3ccc(CN4CCS(=O)(=O)CC4)cc3)n2n1)C1CC1 [Compound 1, cyclopropanecarboxylic acid {5-[4-(1,1-dioxo-thiomorpholin-4-ylmethyl)-phenyl]-[1,2,4]triazolo[1,5-a]pyridin-2yl}-amide]
Week 2
  Atherogenic index Mean percentage CFB - 12 weeks results: −5%
  Atherogenic index Median CFB - 12 weeks results: -0.20 mmol/L
Week 4
  Atherogenic index Mean CFB: -0.30 mmol/L
  Atherogenic index Mean percentage CFB - 12 weeks results: −7%
  Atherogenic index Median CFB - 12 weeks results: -0.30 mmol/L
Week 8
  Atherogenic index Mean CFB: -0.18 mmol/L
  Atherogenic index Mean percentage CFB - 12 weeks results: −4%
  Atherogenic index Median CFB - 12 weeks results: -0.20 mmol/L
Week 12
  Atherogenic index Mean CFB: -0.24 mmol/L
  Atherogenic index Mean percentage CFB - 12 weeks results: −5%
  Atherogenic index Median CFB - 12 weeks results: -0.10 mmol/L
100 mg/bid dose
  atherogenic index variation, decrease compared to pre-treatment baseline: 0.2 fold
200 mg q.d.
  atherogenic index variation, decrease compared to pre-treatment baseline: 0.35 fold
[1]
  Atherogenic index Mean CFB - 24 weeks results: 0.05 mmol/L
  Atherogenic index Mean percentage CFB - 24 weeks results: 3.56%
  Atherogenic index Median CFB - 24 weeks results: -0.10 mmol/L
[2]
  Atherogenic index Mean CFB - 24 weeks results: -0.11 mmol/L
  Atherogenic index Mean percentage CFB - 24 weeks results: −1.15%
  Atherogenic index Median CFB - 24 weeks results: -0.20 mmol/L
[3]
  Atherogenic index Mean CFB - 24 weeks results: -0.15 mmol/L
  Atherogenic index Mean percentage CFB - 24 weeks results: −3.02%
  Atherogenic index Median CFB - 24 weeks results: -0.10 mmol/L
[4]
  Atherogenic index Mean CFB - 24 weeks results: -0.17 mmol/L
  Atherogenic index Mean percentage CFB - 24 weeks results: −3.11%
  Atherogenic index Median CFB - 24 weeks results: -0.10 mmol/L
[5]
  Atherogenic index Mean CFB - 24 weeks results: -0.19 mmol/L
  Atherogenic index Mean percentage CFB - 24 weeks results: −2.58%
  Atherogenic index Median CFB - 24 weeks results: -0.30 mmol/L
[6]
  Atherogenic index Mean CFB - 24 weeks results: -0.10 mmol/L
  Atherogenic index Mean percentage CFB - 24 weeks results: −0.03%
[7]
  Atherogenic index Mean CFB - 24 weeks results: -0.26 mmol/L
  Atherogenic index Mean percentage CFB - 24 weeks results: −4.14%
[8]
  Atherogenic index Mean CFB - 24 weeks results: -0.24 mmol/L
  Atherogenic index Mean percentage CFB - 24 weeks results: −4.89%
  Atherogenic index Median CFB - 24 weeks results: -0.30 mmol/L
[9]
  Atherogenic index Mean CFB - 24 weeks results: -0.03 mmol/L
  Atherogenic index Mean percentage CFB - 24 weeks results: 0.53%
  Atherogenic index Median CFB - 24 weeks results: 0.00 mmol/L
[10]
  Atherogenic index Mean CFB - 24 weeks results: -0.06 mmol/L
  Atherogenic index Mean percentage CFB - 24 weeks results: −0.94%
  Atherogenic index Median CFB - 24 weeks results: 0.10 mmol/L
[11]
  Atherogenic index Mean CFB - 24 weeks results: -0.11 mmol/L
  Atherogenic index Mean percentage CFB - 24 weeks results: −1.77%
  Atherogenic index Median CFB - 24 weeks results: -0.10 mmol/L
[12]
  Atherogenic index Mean CFB - 24 weeks results: -0.13 mmol/L
  Atherogenic index Mean percentage CFB - 24 weeks results: −1.35%
  Atherogenic index Median CFB - 24 weeks results: -0.10 mmol/L
[13]
  Atherogenic index Mean CFB - 24 weeks results: 0.02 mmol/L
  Atherogenic index Mean percentage CFB - 24 weeks results: 2.72%
  Atherogenic index Median CFB - 24 weeks results: 0.20 mmol/L
[14]
  Atherogenic index Mean CFB - 24 weeks results: -0.05 mmol/L
  Atherogenic index Mean percentage CFB - 24 weeks results: −0.95%
  Atherogenic index Median CFB - 24 weeks results: -0.10 mmol/L
[15]
  Atherogenic index Mean CFB - 24 weeks results: 0.02 mmol/L
  Atherogenic index Mean percentage CFB - 24 weeks results: −0.01%
  Atherogenic index Median CFB - 24 weeks results: 0.00 mmol/L
[16]
  Atherogenic index Mean CFB - 24 weeks results: -0.12 mmol/L
  Atherogenic index Mean percentage CFB - 24 weeks results: −2.40%
  Atherogenic index Median CFB - 24 weeks results: 0.00 mmol/L
[17]
  Atherogenic index Mean CFB - 24 weeks results: -0.47 mmol/L
  Atherogenic index Mean percentage CFB - 24 weeks results: −4.74%
  Atherogenic index Median CFB - 24 weeks results: -0.10 mmol/L
[18]
  Atherogenic index Mean CFB - 24 weeks results: -0.39 mmol/L
  Atherogenic index Mean percentage CFB - 24 weeks results: −6.13%
  Atherogenic index Median CFB - 24 weeks results: -0.20 mmol/L
[19]
  Atherogenic index Mean CFB - 24 weeks results: -0.45 mmol/L
  Atherogenic index Mean percentage CFB - 24 weeks results: −8.32%
  Atherogenic index Median CFB - 24 weeks results: -0.30 mmol/L
[20]
  Atherogenic index Mean CFB - 24 weeks results: -0.07 mmol/L
  Atherogenic index Mean percentage CFB - 24 weeks results: −0.54%
[21]
  Atherogenic index Mean CFB - 24 weeks results: -0.12 mmol/L
  Atherogenic index Mean percentage CFB - 24 weeks results: −1.77%
[22]
  Atherogenic index Mean CFB - 24 weeks results: -0.12 mmol/L
  Atherogenic index Mean percentage CFB - 24 weeks results: −3.43%
